Reference: patent EP0115640A2, “Substituted 4-imidazolyl-pyrazoles, process for their preparation and medicaments containing them” (BAYER AG, priority 1983, dated 1984)

Tested on: Thrombozytenaggregation
Experiment: Inhibition of collagen-induced platelet aggregation in platelet-rich plasma (turbidimetric method, aggregometer)
Type: cell-based, Human
Conditions: Homo sapiens, Platelet; PRP, 37°C, aggregation triggered with Kollagensuspension; minimal concentration that inhibits aggregation; read-out: Hemmung der Thrombozytenaggregation minimal effektive Konzentration
Description: Thrombozytenaggregationshemmung
Für die Bestimmung der thrombozytenaggregationshemmenden Wirkung wurde Blut von gesunden Spendern, die mindestens 14 Tage lang kein Medikament eingenommen hatten, verwendet. Das Blut wurde in 3,8 %-iger Natriumcitratlösung aufgenommen. Plättchenreiches Plasma (PRP) wurde durch 20 Minuten Zentrifugation bei 150 g und Raumtemperatur gewonnen (Jürgens/Beller: Klinische Methoden der Blutgerinnungsanalyse; Thieme-Verlag Stuttgart 1959). Die Plättchenaggregation wurde nach der turbidometrischen Methode (Born, G.V.R.: J. Physiol. 162, 67 (1962)) im Aggregometer bei 37°C bestimmt. Hierzu wurde PRP mit Prüfsubstanz bei 37°C inkubiert und anschließend die Aggregation durch Zugabe einer Kollagensuspension ausgelöst. Bestimmt wurde die minimale Konzentration einer Prüfsubstanz, die die Thrombozytenaggregation hemmte.
In diesem Test wird die Thrombozytenaggregation insbesondere durch die Verbindungen folgender Herstellungsbeispiele gehemmt: 1, 2, 9 und 15.

`c1c[nH]cn1` [Imidazol] was tested. Which minimal effective concentration did it give?
Its minimal effective concentration is 30 µg/mL.

`Cn1cc(-n2ccnc2)c(C(C)(C)COc2ccc(Cl)cc2)n1` [Beispiel 15] was tested. Which minimal effective concentration did it give?
The minimal effective concentration was 30 µg/mL.

Same assay, conditions: result in words, PRP, collagen-induced

How did the Thrombozytenaggregation gehemmt turn out when `CC(C)(COc1ccc(Cl)cc1Cl)c1n[nH]cc1-n1ccnc1` [Beispiel 9] was run?
The Thrombozytenaggregation gehemmt was “gehemmt”.

For `CC(C)(C)c1n[nH]cc1-n1ccnc1` [Beispiel 1], which Thrombozytenaggregation gehemmt is on record?
Its Thrombozytenaggregation gehemmt is “gehemmt”.

Which Thrombozytenaggregation gehemmt does the source give for `Cn1cc(-n2ccnc2)c(C(C)(C)C)n1` [Beispiel 2, 3-tert.-Butyl-1-methyl-4-(imidazol-1-yl)-pyrazol] here?
The Thrombozytenaggregation gehemmt was “gehemmt”.

For `Cn1cc(-n2ccnc2)c(C(C)(C)COc2ccc(Cl)cc2)n1` [Beispiel 15], which Thrombozytenaggregation gehemmt is on record?
The Thrombozytenaggregation gehemmt was “gehemmt”.
